According to BindingDB's records for doi:10.1016/j.chembiol.2010.07.018 (University of Dundee, 2010):
Starred links: 1 amine or outer side, 2 acyl side, 3 side chain; linkers in the order of their positions; H or OH if unused. Non-standard residues stand in square brackets, D forms with d. Residues, ends and D or L forms follow the SMILES beside them. Groups on a side chain read outwards from the residue. βAsp = O=C(O)[C@H](CC(=O)[*:2])N[*:1]; NMeF = CN[C@@H](Cc1ccccc1)C(=O)O; CO = O=C([*:1])[*:2]

molecular target: T1, Endochitinase A1 (Aspergillus fumigatus, UniProt Q873Y0); assay: Enzyme Inhibition Assay; conditions: pH 5.5; 37 °C
T1 sequence (Q873Y0 whole entry): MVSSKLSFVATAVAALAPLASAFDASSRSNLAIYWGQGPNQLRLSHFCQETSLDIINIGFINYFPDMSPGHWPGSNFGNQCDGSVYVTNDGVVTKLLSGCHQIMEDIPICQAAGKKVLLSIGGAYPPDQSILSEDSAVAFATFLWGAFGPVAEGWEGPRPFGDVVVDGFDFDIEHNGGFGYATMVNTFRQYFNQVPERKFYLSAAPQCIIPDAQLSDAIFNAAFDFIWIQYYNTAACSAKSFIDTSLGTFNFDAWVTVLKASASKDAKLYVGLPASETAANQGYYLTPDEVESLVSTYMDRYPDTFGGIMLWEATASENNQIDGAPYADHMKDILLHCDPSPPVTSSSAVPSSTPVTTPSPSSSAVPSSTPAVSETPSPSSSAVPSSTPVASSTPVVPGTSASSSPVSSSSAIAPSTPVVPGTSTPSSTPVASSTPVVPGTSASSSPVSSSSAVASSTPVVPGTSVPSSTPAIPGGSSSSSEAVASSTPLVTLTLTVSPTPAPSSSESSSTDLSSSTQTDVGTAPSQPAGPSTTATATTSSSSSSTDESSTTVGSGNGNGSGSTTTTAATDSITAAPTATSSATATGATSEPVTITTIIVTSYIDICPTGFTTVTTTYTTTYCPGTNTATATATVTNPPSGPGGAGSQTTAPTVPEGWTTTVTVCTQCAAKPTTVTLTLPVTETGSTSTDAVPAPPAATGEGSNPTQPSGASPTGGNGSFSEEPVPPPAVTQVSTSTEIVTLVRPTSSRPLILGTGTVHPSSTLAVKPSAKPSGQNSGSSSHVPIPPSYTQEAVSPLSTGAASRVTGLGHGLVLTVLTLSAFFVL

Compound | IC50
CNC(=O)NC(=N)NCCC[C@@H]1NC(=O)[C@@H](C)NC(=O)C[C@@H](C(=O)O)NC(=O)C[C@@H](C(=O)O)NC(=O)[C@H](Cc2ccccc2)N(C)C1=O [(2R,5S,8S,11S,15S)-8-benzyl-2,7-dimethyl-5-[3-({[(methylcarbamoyl)amino]methanimidoyl}amino)propyl]-3,6,9,13,17-pentaoxo-1,4,7,10,14-pentaazacycloheptadecane-11,15-dicarboxylic acid] (cyclo([NMeF][βAsp][βAsp][dA]R([CO-NHMe]))) | > 3800 µM
[H]/N=C(\NC)NC(=O)NC [Argifin-Derived Fragments, 1] | 79 µM
CCN=C(N)NC(=O)NC [Argifin-Derived Fragments, 2] | 310 µM
CCCN=C(N)NC(=O)NC [Argifin-Derived Fragments, 3] | 62 µM
CCCCNC(=N)NC(=O)NC [Argifin-Derived Fragments, 4] | 38 µM
CNC(=O)NC(=N)NC1CCCCC1 [Argifin-Derived Fragments, 5] | 42 µM
CNC(=O)NC(N)=Nc1ccccc1 [Argifin-Derived Fragments, 6] | 112 µM
CNC(=O)NC(N)=NCc1ccccc1 [Argifin-Derived Fragments, 7] | 299 µM
